In one assay the test system is CCRF-CEM. The assay is described as follows: Tested for the growth inhibition of CCRF-CEM, a human T-cell derived lymphoblastic leukemic cell line. In kind it is functional, cell-based.
Assay [1] concerns the target T1, Trifunctional purine biosynthetic protein adenosine-3 (Homo sapiens, UniProt P22102).
T1 sequence (P22102 whole entry): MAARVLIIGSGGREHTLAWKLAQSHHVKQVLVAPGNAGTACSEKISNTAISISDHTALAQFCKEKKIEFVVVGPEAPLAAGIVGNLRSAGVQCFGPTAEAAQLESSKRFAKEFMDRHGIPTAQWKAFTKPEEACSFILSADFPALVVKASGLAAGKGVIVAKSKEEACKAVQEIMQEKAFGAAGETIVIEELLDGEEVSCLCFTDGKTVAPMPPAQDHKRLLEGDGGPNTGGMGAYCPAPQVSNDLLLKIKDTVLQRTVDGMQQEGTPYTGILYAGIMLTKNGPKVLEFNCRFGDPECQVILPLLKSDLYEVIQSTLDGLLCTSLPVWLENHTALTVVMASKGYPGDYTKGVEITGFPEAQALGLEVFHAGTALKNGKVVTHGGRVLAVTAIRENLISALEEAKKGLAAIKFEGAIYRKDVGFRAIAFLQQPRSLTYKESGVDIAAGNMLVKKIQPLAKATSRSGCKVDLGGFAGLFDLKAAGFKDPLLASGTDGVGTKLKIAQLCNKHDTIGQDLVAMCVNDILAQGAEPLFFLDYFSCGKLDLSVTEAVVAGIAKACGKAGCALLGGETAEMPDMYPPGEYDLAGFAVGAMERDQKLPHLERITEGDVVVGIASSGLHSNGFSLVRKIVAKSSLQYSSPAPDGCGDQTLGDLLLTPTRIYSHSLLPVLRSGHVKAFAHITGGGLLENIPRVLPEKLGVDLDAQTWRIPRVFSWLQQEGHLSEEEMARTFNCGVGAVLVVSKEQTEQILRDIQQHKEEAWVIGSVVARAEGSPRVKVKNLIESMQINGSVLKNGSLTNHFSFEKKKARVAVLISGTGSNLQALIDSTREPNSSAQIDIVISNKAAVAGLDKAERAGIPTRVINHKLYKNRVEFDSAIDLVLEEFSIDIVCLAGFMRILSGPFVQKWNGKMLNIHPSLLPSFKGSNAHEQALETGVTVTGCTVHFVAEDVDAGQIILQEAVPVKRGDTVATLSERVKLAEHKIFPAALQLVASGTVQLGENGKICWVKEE
The assay is described as follows: Tested for the inhibition of recombinant human monofunctional Glycinamide ribonucleotide formyltransferase.

For assay [2], the target named is T2, Trifunctional purine biosynthetic protein adenosine-3 (Mus musculus, UniProt Q64737).
T2 sequence (Q64737 whole entry): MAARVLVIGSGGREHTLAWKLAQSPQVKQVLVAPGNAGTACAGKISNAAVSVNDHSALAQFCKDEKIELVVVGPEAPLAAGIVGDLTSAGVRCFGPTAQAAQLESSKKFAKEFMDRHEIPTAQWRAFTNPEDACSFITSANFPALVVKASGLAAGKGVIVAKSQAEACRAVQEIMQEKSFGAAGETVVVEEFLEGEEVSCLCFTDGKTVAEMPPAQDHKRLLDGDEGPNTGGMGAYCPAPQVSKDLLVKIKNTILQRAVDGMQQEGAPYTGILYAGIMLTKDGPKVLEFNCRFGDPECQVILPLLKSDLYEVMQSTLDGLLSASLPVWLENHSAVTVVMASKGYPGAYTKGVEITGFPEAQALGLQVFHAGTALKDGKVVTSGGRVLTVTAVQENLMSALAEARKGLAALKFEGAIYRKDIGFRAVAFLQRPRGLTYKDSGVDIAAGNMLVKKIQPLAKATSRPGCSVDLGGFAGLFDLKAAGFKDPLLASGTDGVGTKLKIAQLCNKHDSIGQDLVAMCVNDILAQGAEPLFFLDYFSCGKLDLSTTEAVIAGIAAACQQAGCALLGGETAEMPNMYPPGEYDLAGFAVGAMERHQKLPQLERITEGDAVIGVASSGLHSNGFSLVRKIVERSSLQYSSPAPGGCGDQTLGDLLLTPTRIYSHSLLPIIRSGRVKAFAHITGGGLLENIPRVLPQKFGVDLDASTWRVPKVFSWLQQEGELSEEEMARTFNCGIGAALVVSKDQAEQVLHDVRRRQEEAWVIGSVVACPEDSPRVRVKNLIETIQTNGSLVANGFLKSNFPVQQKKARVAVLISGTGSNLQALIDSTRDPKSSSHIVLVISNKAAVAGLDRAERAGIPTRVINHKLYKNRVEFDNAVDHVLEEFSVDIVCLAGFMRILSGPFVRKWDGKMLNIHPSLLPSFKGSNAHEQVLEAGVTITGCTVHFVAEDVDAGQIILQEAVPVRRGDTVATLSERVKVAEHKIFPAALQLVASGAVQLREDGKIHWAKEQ
Nature of the assay: Tested for the inhibition of trifunctional Glycinamide ribonucleotide formyltransferase isolated from murine L1210 cells. In kind it is functional.

Molecules are shown by their SMILES. Converted amounts (≈) assume the structure as drawn. A value given as a limit tells only on which side of the number the result lay.

For the molecule `Nc1ncc2c(n1)NCC(CCc1ccc(C(=O)N[C@@H](CCC(=O)O)C(=O)O)cc1)C2` (stereo partly specified), the IC50 with CCRF-CEM worked out at 4 ng/mL (≈ 9.36 nM). Moreover, the Ki in assay [1] amounted to 186 µM.

Molecule `Nc1nc2c(c(=O)[nH]1)C[C@@H](CCc1ccc(C(=O)N[C@@H](CCC(=O)O)C(=O)O)cc1)CN2` [LOMETREXOL] had a Ki in assay [2] of 0.12 µM.

As for `O=C(O)CC[C@H](NC(=O)c1ccc(CCC2CNc3ncnc(O)c3C2)cc1)C(=O)O` (stereo partly specified), the figures for the Ki in assay [2] and in assay [1] were 27 µM and 82.1 µM, respectively. Moreover, in the assay on CCRF-CEM, the IC50 is greater than 20000 ng/mL.

For the origin of these results see ChEMBL document CHEMBL1127157, “Synthesis and biological activity of 2-desamino and 4-deoxy analogs of 5,10-dideazatetrahydrofolic acid (DDATHF)” (Bioorg Med Chem Lett, 1993).
